This is an account of results in patent publication US9686985B2, “Fungicide N-cycloalkyl-N-bicyclicmethylene-carboxamide derivatives” (BAYER INTELLECTUAL PROPERTY GMBH, priority 2012, dated 2017).

The subject of one data set is Alternaria brassicae. Nature of the data set: Example D: in vivo preventive test on Alternaria brassicae (leaf spot on radish). Conditions: table D; 500 ppm; radish plants; grading 6 days after contamination. The protocol:
Example D: In Vivo Preventive Test on Alternaria brassicae (Leaf Spot on Radish) […] Radish plants (“Pernod Clair” variety), sown in starter cups on a 50/50 peat soil pozzolana substrate and grown at 17° C., are treated at the cotyledon stage by spraying with the active ingredient prepared as described above. Plants, used as controls, are treated with the mixture of acetone/tween/DMSO/water not containing the active material. After 24 hours, the plants are contaminated by spraying the cotyledons with an aqueous suspension of Alternaria brassicae spores (50 000 spores per mL). The spores are collected from a 15-day-old culture. The contaminated radish plants are incubated at 20° C. and at 100% relative humidity. Grading (% of efficacy) is carried out 6 days after the contamination, in comparison with the control plants.

The next data set deals with Pyrenophora teres. As to the kind of experiment: Example N: in vivo preventive test on Pyrenophora teres (barley). Conditions: table N; 500 ppm; barley plants; grading 14 days after contamination. As for the experimental part:
Example N: In Vivo Preventive Test on Pyrenophora teres (Barley) […] Barley plants (“Plaisant” variety), sown in starter cups on a 50/50 peat soil pozzolana substrate and grown at 22° C., are treated at the 1 leaf stage (10 cm height) by spraying with the active ingredient prepared as described above. Plants, used as controls, are treated with the mixture of acetone/tween/DMSO/water not containing the active material. After 24 hours, the plants are contaminated by spraying the leaves with an aqueous suspension of Pyrenophora teres spores (12 000 spores per mL). The spores are collected from a 12-day-old culture. The contaminated barley plants are incubated for 48 hours at 20° C. and at 100% relative humidity, and then for 12 days at 20° C. at 70-80% relative humidity. Grading (% of efficacy) is carried out 14 days after the contamination, in comparison with the control plants.

Another data set deals with Puccinia recondita. As to the kind of experiment: Example R: in vivo preventive test on Puccinia recondita (brown rust on wheat). Particulars: table R; 500 ppm; wheat plants; grading 12 days after contamination. The protocol: Example R: In Vivo Preventive Test on Puccinia recondita (Brown Rust on Wheat) […] Wheat plants (“Scipion” variety), sown in starter cups on a 50/50 peat soil pozzolana substrate and grown at 22° C., are treated at the 1 leaf stage (10 cm height) by spraying with the active ingredient prepared as described above. Plants, used as controls, are treated with the mixture of acetone/tween/DMSO/water not containing the active material. After 24 hours, the plants are contaminated by spraying the leaves with an aqueous suspension of Puccinia recondita spores (100 000 spores per mL). The spores are collected from an infected plant and are suspended in water containing 2.5 mL/L of Tween 80 at 10%. The contaminated wheat plants are incubated for 24 hours at 20° C. and at 100% relative humidity, and then for 10 days at 20° C. and at 70-80% relative humidity. Grading (% of efficacy) is carried out 12 days after the contamination, in comparison with the control plants.

In the next data set the test system is Uromyces appendiculatus. As to the kind of experiment: Example G: in vivo preventive test on Uromyces appendiculatus (bean rust). Particulars: bean plants. As for the experimental part: Example G: In Vivo Preventive Test on Uromyces appendiculatus (Bean Rust) […] Bean plants (“Saxa” variety), sown in starter cups on a 50/50 peat soil pozzolana substrate and grown at 24° C., are treated at the 2 leaf stage (9 cm height) by spraying with the active ingredient prepared as described above. Plants, used as controls, are treated with the mixture of acetone/tween/DMSO/water not containing the active material. After 24 hours, the plants are contaminated by spraying the leaves with an aqueous suspension of Uromyces appendiculatus spores (150 000 spores per mL). The spores are collected from infected plants and are suspended in water containing 2.5 mL/L of Tween 80 at 10%. The contaminated bean plants are incubated for 24 hours at 20° C. and at 100% relative humidity, and then for 10 days at 20° C. and at 70-80% relative humidity. Grading (% of efficacy) is carried out 11 days after the contamination, in comparison with the control plants.

Data set [1] can be described thus: log P by HPLC on reversed-phase column (EEC Directive 79/831 Annex V.A8). In kind it is physicochemical. Conditions: Table 1; HPLC C18, 40° C., 0.1% aqueous formic acid and acetonitrile gradient. As for the experimental part: In table 1, the log P values were determined in accordance with EEC Directive 79/831 Annex V.A8 by HPLC (High Performance Liquid Chromatography) on a reversed-phase column (C 18), using the method described below: Temperature: 40° C.; Mobile phases: 0.1% aqueous formic acid and acetonitrile; linear gradient from 10% acetonitrile to 90% acetonitrile. Calibration was carried out using unbranched alkan-2-ones (comprising 3 to 16 carbon atoms) with known log P values (determination of the log P values by the retention times using linear interpolation between two successive alkanones). lambda-max-values were determined using UV-spectra from 200 nm to 400 nm and the peak values of the chromatographic signals.

The next data set relates to Sphaerotheca fuliginea. Nature of the data set: Example B: in vivo preventive test on Sphaerotheca fuliginea (powdery mildew on cucurbits). Particulars: table B; 500 ppm; gherkin plants; grading 12 days after contamination. As for the experimental part:
Example B: In Vivo Preventive Test on Sphaerotheca fuliginea (Powdery Mildew on Cucurbits) […] Gherkin plants (“Vert petit de Paris” variety), sown in starter cups on a 50/50 peat soil-pozzolana substrate and grown at 24° C., are treated at the Z11 cotyledon stage by spraying with the active ingredient prepared as described above. Plants, used as controls, are treated with the mixture of acetone/tween/DMSO/water not containing the active material. After 24 hours, the plants are contaminated by spraying the cotyledons with an aqueous suspension of Sphaerotheca fuliginea spores (100 000 spores per mL). The spores are collected from infected plants. The contaminated gherkin plants are incubated at about 20° C. and at 70-80% relative humidity. Grading (% of efficacy) is carried out 12 days after the contamination, in comparison with the control plants.

The next data set has as its system Septoria tritici. As to the kind of experiment: Example L: in vivo preventive test on Septoria tritici (wheat). Conditions: table L; 500 ppm; wheat plants; grading 24 days after contamination. The protocol:
Example L: In Vivo Preventive Test on Septoria tritici (Wheat) […] Wheat plants (“Scipion” variety), sown in starter cups on a 50/50 peat soil pozzolana substrate and grown at 22° C., are treated at the 1 leaf stage (10 cm height) by spraying with the active ingredient prepared as described above. Plants, used as controls, are treated with the mixture of acetone/tween/DMSO/water not containing the active material. After 24 hours, the plants are contaminated by spraying the leaves with an aqueous suspension of cryopreserved Septoria tritici spores (500 000 spores per mL). The contaminated wheat plants are incubated for 72 hours at 18° C. and at 100% relative humidity, and then for 21 days at 90% relative humidity. Grading (% of efficacy) is carried out 24 days after the contamination, in comparison with the control plants.

Where [2] appears, read: table G1, 500 ppm, grading 11 days after contamination.

Take `Cn1nc(C(F)F)c(C(=O)N(CC2CCc3c(Cl)cc(Cl)cc32)C2CC2)c1F` (stereo not drawn) [I.18]: the Efficacy stood at 100% in the data set with Alternaria brassicae; 100% with Pyrenophora teres; 94% in the data set on Puccinia recondita; 100% in the data set with Uromyces appendiculatus (setting [2]); 100% with Sphaerotheca fuliginea; 93% in the data set with Septoria tritici. The compound also returned a logP in data set [1] of 4.39.

For `Cn1nc(C(F)F)c(C(=O)N(CC2CC(C)(C)c3ccccc32)C2CC2)c1Cl` (stereo not drawn) [I.10], the Efficacy with Alternaria brassicae came to 92%; with Pyrenophora teres, 86%; in the data set with Puccinia recondita, 88%; in the data set with Uromyces appendiculatus (setting [2]), 99%; in the data set with Sphaerotheca fuliginea, 100%; with Septoria tritici, 79%. Also, in data set [1], the logP is 4.08.

Turning to `Cc1ccc2c(c1)CCC2CN(C(=O)c1c(C(F)F)nn(C)c1F)C1CC1` (stereo not drawn) [I.6], the Efficacy was 97% in the data set on Alternaria brassicae; 100% in the data set on Pyrenophora teres; 100% with Puccinia recondita; 100% with Uromyces appendiculatus (setting [2]); 69% in the data set on Uromyces appendiculatus (table G2, dose 100 ppm); 100% in the data set on Uromyces appendiculatus (table G2, dose 500 ppm). In addition, the values for the Efficacy with Sphaerotheca fuliginea and with Septoria tritici were 100% and 97%, respectively. The compound also registered a logP in data set [1] of 3.76.

For the compound `Cn1nc(C(F)F)c(C(=O)N(CC2CCc3cc(Cl)ccc32)C2CC2)c1Cl` (stereo not drawn) [I.13], the values for the Efficacy in the data set on Alternaria brassicae, in the data set with Pyrenophora teres and in the data set on Sphaerotheca fuliginea were 75%, 86% and 78%, respectively. The compound further came in with a logP in data set [1] of 3.99.

Take `COc1cccc2c1CCCC2CN(C(=S)c1c(C(F)F)nn(C)c1F)C1CC1` (stereo not drawn) [I.27]: the Efficacy turned out to be 93% with Alternaria brassicae, 71% in the data set on Pyrenophora teres, 80% in the data set on Sphaerotheca fuliginea and 97% with Septoria tritici. Further, in data set [1], the logP came to 4.46.

For the compound `Cn1nc(C(F)F)c(C(=O)N(CC2CCc3ccccc32)C2CC2)c1F` (stereo not drawn) [I.2], the Efficacy in the data set with Alternaria brassicae was determined as 100%; in the data set with Pyrenophora teres, 100%; in the data set on Puccinia recondita, 100%; in the data set on Uromyces appendiculatus (setting [2]) it was 100%; with Uromyces appendiculatus (table G2, dose 100 ppm) it was 88%; in the data set on Uromyces appendiculatus (table G2, dose 500 ppm), 100%. In addition, the Efficacy in the data set with Sphaerotheca fuliginea and in the data set on Septoria tritici was 100% each time. Also, in data set [1], the logP was 3.35.

As to `CC1CCC(CN(C(=O)c2c(C(F)F)nn(C)c2Cl)C2CC2)c2ccccc21` (stereo not drawn) [I.25], the Efficacy with Alternaria brassicae and with Pyrenophora teres was 94% each time. In data set [1], this compound registered a logP of 4.11.

On to `Cn1nc(C(F)F)c(C(=O)N(CC2CCc3ccccc32)C2CC2)c1Cl` (stereo not drawn) [I.1], for which the Efficacy in the data set on Pyrenophora teres stood at 86%; in the data set with Puccinia recondita it was 88%; in the data set on Uromyces appendiculatus (setting [2]), 72%; with Sphaerotheca fuliginea it was 83%. Further, in data set [1], the logP was determined as 3.51.

Consider `Cn1nc(C(F)F)c(C(=O)N(CC2CCc3cc(Cl)ccc32)C2CC2)c1F` (stereo not drawn) [I.12], for which the Efficacy is given as 100% in the data set on Alternaria brassicae; 100% with Pyrenophora teres; 81% with Puccinia recondita; 100% in the data set on Uromyces appendiculatus (setting [2]); 19% in the data set on Uromyces appendiculatus (table G2, dose 100 ppm); 100% with Uromyces appendiculatus (table G2, dose 500 ppm). The Efficacy amounted to 100% in the data set with Sphaerotheca fuliginea and 93% in the data set on Septoria tritici. The logP in data set [1] came out at 3.83.

With `Cc1cccc2c1CCC2CN(C(=O)c1c(C(F)F)nn(C)c1Cl)C1CC1` (stereo not drawn) [I.4], the Efficacy was 75% with Alternaria brassicae, 71% in the data set with Pyrenophora teres and 79% with Septoria tritici. In data set [1], this compound returned a logP of 3.87.

As to `Cn1nc(C(F)F)c(C(=O)N(CC2CC(C)(C)c3ccccc32)C2CC2)c1F` (stereo not drawn) [I.9], the Efficacy in the data set on Alternaria brassicae is recorded as 100%; in the data set with Pyrenophora teres, 97%; in the data set on Puccinia recondita, 100%; in the data set with Uromyces appendiculatus (table G2, dose 100 ppm) it was 100%; in the data set on Sphaerotheca fuliginea, 100%; in the data set with Septoria tritici, 97%. In addition, in data set [1], the logP was determined as 3.94.

For `Cc1ccc2c(c1)CCC2CN(C(=O)c1c(C(F)F)nn(C)c1Cl)C1CC1` (stereo not drawn) [I.5], the Efficacy with Pyrenophora teres amounted to 86%; in the data set on Puccinia recondita, 75%; in the data set on Sphaerotheca fuliginea, 100%. Besides, the logP in data set [1] is on record as 3.94.

In the case of `Cn1nc(C(F)F)c(C(=O)N(CC2CCc3c(Cl)cc(Cl)cc32)C2CC2)c1Cl` (stereo not drawn) [I.19], the Efficacy was found to be 92% in the data set on Alternaria brassicae, 71% in the data set on Pyrenophora teres, 88% with Puccinia recondita and 100% with Uromyces appendiculatus (setting [2]). In data set [1], the logP was determined as 4.59.

With `Cn1nc(C(F)F)c(C(=O)N(CC2CCc3c(F)cccc32)C2CC2)c1F` (stereo not drawn) [I.7], the Efficacy amounted to 97% in the data set on Alternaria brassicae; 97% in the data set with Pyrenophora teres; 94% in the data set with Puccinia recondita; 100% in the data set on Uromyces appendiculatus (setting [2]); 98% in the data set with Uromyces appendiculatus (table G2, dose 100 ppm); 100% in the data set with Uromyces appendiculatus (table G2, dose 500 ppm). The Efficacy in the data set on Sphaerotheca fuliginea amounted to 100%; with Septoria tritici, 93%. Further, in data set [1], the logP is on record as 3.39.

By logP is commonly meant the decadic logarithm of the partition coefficient of the neutral form, usually between octanol and water.
